{
  "source": "paper PMC5540879",
  "about": "(Molecular cancer research : MCR, 2017)",
  "data": [
    {"molecular_target": "T1, OATP1B3 (Homo sapiens, UniProt Q9NPD5)", "T1 sequence (Q9NPD5 1-702)": "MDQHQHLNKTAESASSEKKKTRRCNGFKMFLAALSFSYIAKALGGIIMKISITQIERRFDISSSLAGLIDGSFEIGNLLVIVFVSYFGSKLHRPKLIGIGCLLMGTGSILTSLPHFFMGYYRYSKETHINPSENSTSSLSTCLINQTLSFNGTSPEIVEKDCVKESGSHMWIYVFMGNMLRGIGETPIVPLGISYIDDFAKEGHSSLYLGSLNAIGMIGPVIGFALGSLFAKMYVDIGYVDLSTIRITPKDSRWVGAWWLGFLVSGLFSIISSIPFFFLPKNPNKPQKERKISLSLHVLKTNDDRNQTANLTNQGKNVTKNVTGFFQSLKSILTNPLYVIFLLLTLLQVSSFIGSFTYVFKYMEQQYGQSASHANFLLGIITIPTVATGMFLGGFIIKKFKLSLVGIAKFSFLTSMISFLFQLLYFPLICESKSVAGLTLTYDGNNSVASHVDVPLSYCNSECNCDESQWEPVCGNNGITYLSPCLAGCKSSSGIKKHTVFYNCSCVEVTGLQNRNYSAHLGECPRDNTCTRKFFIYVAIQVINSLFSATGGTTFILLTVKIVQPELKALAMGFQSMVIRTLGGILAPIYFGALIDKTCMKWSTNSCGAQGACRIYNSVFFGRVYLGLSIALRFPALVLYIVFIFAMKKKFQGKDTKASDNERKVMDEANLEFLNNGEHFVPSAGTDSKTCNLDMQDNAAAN", "test": "radiolabeled uptake kinetics", "type": "cell-based", "settings": "oatp1b3-cho cells", "units": {"Km": "µM"}, "values": [
      {"smiles": "C[C@]12CCC(=O)C[C@@H]1CC[C@@H]1[C@@H]2CC[C@]2(C)[C@@H](O)CC[C@@H]12", "note": "[DHT]", "Km": "30.4 ± 9.3"},
      {"smiles": "C[C@]12CCC(=O)C=C1CC[C@@H]1[C@@H]2CC[C@]2(C)C(=O)CC[C@@H]12", "note": "[androstenedione, 4-androstene-3,17-dione]", "Km": "31.7 ± 9.5"},
      {"smiles": "C[C@]12CC[C@H]3[C@@H](CCC4=CC(=O)CC[C@@]43C)[C@@H]1CC[C@@H]2O", "note": "[testosterone]", "Km": "23.2 ± 3.9"}
    ]}
  ]
}
